Results on one compound are retold here after patent US20100179091A1, “Treatment of Conditions Related to Shock” (THE REGENTS OF THE UNIVERSITY OF CALIFORNIA, priority 2007, published 2010).

This assay relates to shock induced in lab rodents. Put plainly: Survival of lab rodents after induced shock, treated with digestive enzyme inhibitor. Type of assay: in vivo, rodent. From the text:
The present invention is based on the latest research using rodent models of human hemorrhagic shock. Here it has been discovered that the sudden lowering of blood pressure that occurs in people suffering from […] can provoke the body's digestive enzymes to break down the body's own intestinal and other tissues as if it were food. Such enzymes' abnormal actions may be defined as “auto-digestion.” Auto-digestion is dangerous because not only does it injure healthy tissue but also contributes to multi-organ failure, which can be fatal.
The healthy cells of the animals' intestinal tissue react to auto-digestion by releasing a slew of substances that can be toxic to the heart and other body organs. These substances, termed cytotoxic mediators, can reach these body organs via the blood stream. In recent studies, shock was induced in 19 lab rodents, all of which were then treated with therapies that mirror the emergency room care given to many human patients who suffer shock, which typically occurs when blood flow to the heart, lungs and other body organs is slowed as a result of trauma, dehydration, heart attack, stroke or radiation.
A total of 10 of the 19 lab rodents in shock were also treated with the experimental digestive enzyme inhibitor called ANGD. […] However, only one of the nine “untreated” animals in shock survived. […]

`CS(=O)(=O)O.CS(=O)(=O)O.N=C(N)Nc1ccc(C(=O)Oc2ccc3cc(C(=N)N)ccc3c2)cc1` [ANGD]: the animals surviving result (10 of 19 lab rodents in shock treated with ANGD plus basic shock care, one of nine untreated survived) was “Eight of the ten survived”. Also, where the note is “lab animals in which shock had been induced”, the survival rate entry was “dramatically improved the survival rate”.
